# Patent publication US7271154B2, “Antibiotic conjugates” (Merckle GmbH, priority 2002, dated 2007)
# Experiments:
# [1] = compared with erythromycin; cited from earlier work
# PMN = assay: Antimicrobial agent uptake by PMN (bioassay); format: in vitro ADME; settings: intracellular/extracellular concentration, 1 h
I/E ratio (PMN),SMILES,stability in the presence of acids [1]
–,CC[C@H]1OC(=O)[C@H](C)[C@@H](O[C@H]2C[C@@](C)(OC)[C@@H](O)[C@H](C)O2)[C@H](C)[C@@H](O[C@@H]2O[C@H](C)C[C@H](N(C)C)[C@H]2O)[C@](C)(O)C[C@@H](C)CN(C)[C@H](C)[C@@H](O)[C@]1(C)O [Azithromycin],more stable than erythromycin
4.8,C[C@H]1COc2c(N3CCN(C)CC3)c(F)cc3c(=O)c(C(=O)O)cn1c23 [Levofloxacin],–
12.0,COc1c(N2C[C@@H]3CCCN[C@@H]3C2)c(F)cc2c(=O)c(C(=O)O)cn(C3CC3)c12 [Moxifloxacin],–
0.16,"CC1(C)SC2C(NC(=O)Cc3ccccc3)C(=O)N2C1C(=O)O (stereo not shown) [Penicillin G, 3,3-Dimethyl-7-oxo-6-phenylacetylamino-4-thia-1-aza-bicyclo[3.2.0]heptane-2-carboxylic acid]",–
